Data set [1] has as its target T1, MAO-B (Homo sapiens, UniProt P27338).
T1 sequence (P27338 1-520): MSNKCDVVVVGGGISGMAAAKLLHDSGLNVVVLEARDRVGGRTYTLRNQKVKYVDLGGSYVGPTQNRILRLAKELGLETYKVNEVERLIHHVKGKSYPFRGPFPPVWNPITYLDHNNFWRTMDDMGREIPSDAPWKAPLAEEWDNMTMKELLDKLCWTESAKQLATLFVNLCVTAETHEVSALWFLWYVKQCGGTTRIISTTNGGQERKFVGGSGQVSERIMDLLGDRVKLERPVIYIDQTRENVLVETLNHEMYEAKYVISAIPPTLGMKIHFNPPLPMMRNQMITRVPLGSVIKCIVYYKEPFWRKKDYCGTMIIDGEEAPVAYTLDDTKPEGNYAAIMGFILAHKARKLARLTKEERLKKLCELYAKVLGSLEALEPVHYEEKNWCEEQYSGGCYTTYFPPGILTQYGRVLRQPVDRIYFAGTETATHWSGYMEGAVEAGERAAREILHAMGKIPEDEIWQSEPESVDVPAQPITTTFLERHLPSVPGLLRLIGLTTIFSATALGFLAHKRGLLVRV
The experiment in a line: inhibitory action on MAO-B (statement, no method given). Format: biochemical.

Data set [2] is described as follows: human plasma pharmacokinetics of orally administered tyramine. The format is in vivo. From the text: Such pharmaceutical formulations are manufactured in such a way that the product passes unchanged through the stomach of the patient, and dissolves and releases the active ingredient when it leaves the stomach and enters the middle and lower portions of the small intestine. Such formulations can be in tablet or pellet form, where the active ingredient is in the inner part of the tablet or pellet and is enclosed in a film or envelope, the “enteric coating,” which is insoluble in acid environments, such as the stomach, but is soluble in near-neutral environments such as the small intestine.

The term Tmax denotes the time from dosing to the highest level.

Like-named read-outs stand apart in the source and are kept apart here. A value given as a limit tells only on which side of the number the result lay.

Turning to `O=S1(=O)c2ccc(F)cc2Oc2cc(OCC(F)(F)F)ccc21` [CX157, 3-fluoro-7-(2,2,2-trifluoroethoxy)phenoxathiin 10,10-dioxide], the “inhibitory actions on MAO-B” value in data set [1] is listed as “devoid of inhibitory actions on MAO-B”.
Turning to `NCCc1ccc(O)cc1` [tyramine], in data set [2] (human plasma, tyramine with food in a capsule, oral dose of 200 mg), the “time after dosing at which non-detectable levels observed” value is 3 to 4 h. Moreover, the Tmax in data set [2] (human plasma, tyramine with food in a capsule, oral dose of 200 mg, read-out: Tmax) is at most 1.25 h; in data set [2] (human, plasma, oral, 200 mg, dietary tyramine, absorbed and metabolized in stomach, upper small intestine and liver, read-out: average Tmax), 1.25 h.
